Data reported in patent publication US12568972B2, “Pyridazinol compounds and derivatives, preparation methods, herbicidal compositions and applications thereof” (Qingdao Kingagroot Chemical Compound Co., Ltd., priority 2018, dated 2026).

Tests used:
Assay in all cases: Post-emergence test, weed control effect
Type in all cases: in vivo
[1] = test system: Amaranthus retroflexus; settings: after 3 weeks
Method in brief: (§1)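 Scores use a 0 (no effect) to 10 (dead) scale of fresh-weight inhibition, assessed 3 weeks after spraying. Treatment was at the 2-3 leaf stage, 2-3 weeks post-sowing, using acetone/Tween-80/water solutions with 80% vegetable oil methyl ester synergist at 1500 g/ha.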

[2] = test system: Chenopodiaceae; settings: after 3 weeks
Method in brief: as §1

[3] = test system: Echinochloa crus-galli; settings: 504 h, after 3 weeks, fresh weight inhibition, read-out: activity level of harmful plant destruction (growth inhibition rate), Echinochloa crus-galli
Method in brief: as §1

[4] = test system: Galium aparine; settings: 504 h, after 3 weeks, fresh weight inhibition, read-out: activity level of harmful plant destruction (growth inhibition rate), Galium aparine
Method in brief: as §1

[5] = test system: Rorippa indica; settings: after 3 weeks
Method in brief: as §1

[6] = test system: Setaria viridis; settings: 504 h, after 3 weeks, fresh weight inhibition, read-out: activity level of harmful plant destruction (growth inhibition rate), Setaria viridis
Method in brief: as §1

[7] = test system: Veronica polita; settings: after 3 weeks
Method in brief: as §1

Oc1cc(C(F)(F)F)nnc1-c1cccnc1F [Compound 733]
weed control effect (activity level), Amaranthus retroflexus ([1]; dose 1000 g/ha): 10 | inhibition at 300 g/ha ([2]; 504 h, Dose 300 g/ha, fresh weight inhibition, read-out: activity level of harmful plant destruction (growth inhibition rate), Chenopodiaceae): 100% | weed control effect (activity level), Chenopodiaceae ([2]; dose 1000 g/ha): 10 | inhibition at 300 g/ha ([3]; Dose 300 g/ha): 100% | inhibition at 300 g/ha ([4]; Dose 300 g/ha): 100% | inhibition at 300 g/ha ([5]; Rorippa indica, 504 h, Dose 300 g/ha, fresh weight inhibition, read-out: activity level of harmful plant destruction (growth inhibition rate), Rorippa indica): 100% | weed control effect (activity level), Rorippa indica ([5]; dose 1000 g/ha): 10 | inhibition at 300 g/ha ([6]; Dose 300 g/ha): 100% | inhibition at 300 g/ha ([7]; Veronica polita, 504 h, Dose 300 g/ha, fresh weight inhibition, read-out: activity level of harmful plant destruction (growth inhibition rate), Veronica polita): 100% | weed control effect (activity level), Veronica polita ([7]; dose 1000 g/ha): 10

CCCCCCCCSC(=O)Oc1cc(C(F)(F)F)nnc1-c1ccc(F)c(F)c1 [Compound 1-55]
weed control effect, Amaranthus retroflexus (activity level) ([1]; Dose 3000 g/ha): 10 | inhibition at 150 g/ha ([2]; 504 h, Dose 150 g/ha, fresh weight inhibition, read-out: activity level of harmful plant destruction (growth inhibition rate), Chenopodiaceae): 100% | weed control effect, Chenopodiaceae (activity level) ([2]; Dose 3000 g/ha): 10 | inhibition at 150 g/ha ([3]; Dose 150 g/ha): 100% | inhibition at 150 g/ha ([4]; Dose 150 g/ha): 100% | weed control effect, Rorippa indica (activity level) ([5]; Dose 3000 g/ha): 10 | inhibition at 150 g/ha ([5]; Rorippa indica, 504 h, Dose 150 g/ha, fresh weight inhibition, read-out: activity level of harmful plant destruction (growth inhibition rate), Rorippa indica): 100% | inhibition at 150 g/ha ([6]; Dose 150 g/ha): 100% | weed control effect, Veronica polita (activity level) ([7]; Dose 3000 g/ha): 10 | inhibition at 150 g/ha ([7]; Veronica polita, 504 h, Dose 150 g/ha, fresh weight inhibition, read-out: activity level of harmful plant destruction (growth inhibition rate), Veronica polita): 100%
